Results published in US9745328B2, “Flap modulators” (JANSSEN PHARMACEUTICA NV, priority 2013, dated 2017).

molecular target: human FLAP (Homo sapiens (Human), UniProt P20292); test: FLAP binding assay (HTRF format); details: Table 6 (additional runs), human FLAP wild type
Experimental: The ability of the compounds of the present invention to treat a FLAP-mediated disease and/or disorder, or associated symptoms or complications thereof, was determined using the following procedures. Binding assay data represent the average value obtained from two different assay plates, with samples run in duplicate on each plate. Human whole blood assay data represent a single replicate on an assay plate using whole blood from at least one healthy donor.
Data are expressed as a HTRF ratio.

human FLAP, sequence (P20292 whole entry): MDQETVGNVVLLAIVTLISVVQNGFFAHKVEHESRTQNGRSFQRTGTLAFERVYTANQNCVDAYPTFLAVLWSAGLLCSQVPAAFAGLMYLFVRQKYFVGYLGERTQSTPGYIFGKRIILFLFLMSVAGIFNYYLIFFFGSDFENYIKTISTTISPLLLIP

In order of rising Ki:
1. CC(C)(CO)CNS(=O)(=O)c1ccccc1-c1ccc(-c2cnc(N)cn2)c(F)c1 [Example 103, 4′-(5-Aminopyrazin-2-yl)-3′-fluoro-N-(3-hydroxy-2,2-dimethylpropyl)biphenyl-2-sulfonamide]  0.3 nM
2. CC(C)(CCO)NS(=O)(=O)c1ccccc1-c1ccc(-c2cnc(N)cn2)c(F)c1 [Example 102, 4′-(5-Aminopyrazin-2-yl)-3′-fluoro-N-(3-hydroxy-1,1-dimethylpropyl)biphenyl-2-sulfonamide]  0.4 nM
3. Nc1cnc(-c2ccc(-c3ccccc3S(=O)(=O)N[C@@H](CO)[C@@H](O)c3ccccc3)cc2F)cn1 [Example 78, 4′-(5-Aminopyrazin-2-yl)-3′-fluoro-N-[(1S,2S)-2-hydroxy-1-(hydroxymethyl)-2-phenylethyl]biphenyl-2-sulfonamide]  0.7 nM
4. Nc1cnc(-c2ccc(-c3ccccc3S(=O)(=O)N[C@@H](CO)c3ccccc3)cc2F)cn1 [Example 82, 4′-(5-Aminopyrazin-2-yl)-3′-fluoro-N-[(1R)-2-hydroxy-1-phenylethyl]biphenyl-2-sulfonamide]  0.7 nM
5. CC(C)(CO)NS(=O)(=O)c1ccccc1-c1ccc(-c2cnc(N)cn2)c(F)c1 [Example 100, 4′-(5-Aminopyrazin-2-yl)-3′-fluoro-N-(2-hydroxy-1,1-dimethylethyl)biphenyl-2-sulfonamide]  0.8 nM
6. Nc1cnc(-c2ccc(-c3ccccc3S(=O)(=O)N3CCC(CCO)CC3)cc2F)cn1 [Example 69, 2-(1-{[4′-(5-Aminopyrazin-2-yl)-3′-fluorobiphenyl-2-yl]sulfonyl}piperidin-4-yl)ethanol]  0.9 nM
7. Nc1cnc(-c2ccc(-c3ccccc3S(=O)(=O)NCC3CC3)cc2F)cn1 [Example 90, 4′-(5-Aminopyrazin-2-yl)-N-(cyclopropylmethyl)-3′-fluorobiphenyl-2-sulfonamide]  0.9 nM
8. Nc1cnc(-c2ccc(-c3ccccc3S(=O)(=O)N3CCC(O)(C(F)(F)F)CC3)cc2F)cn1 [Example 55, 1-{[4′-(5-Aminopyrazin-2-yl)-3′-fluorobiphenyl-2-yl]sulfonyl}-4-(trifluoromethyl)piperidin-4-ol]  1.1 nM
9. Nc1cnc(-c2ccc(-c3ccccc3S(=O)(=O)N3CCCC(F)(F)C3)cc2F)cn1 [Example 50, 5-{2′-[(3,3-Difluoropiperidin-1-yl)sulfonyl)-3-fluorobiphenyl-4-yl}pyrazin-2-amine]  1.3 nM
10. CCN(CC)S(=O)(=O)c1ccccc1-c1ccc(-c2cnc(N)cn2)c(F)c1 [Example 47, 4′-(5-Aminopyrazin-2-yl)-N,N-diethyl-3′-fluorobiphenyl-2-sulfonamide]  1.6 nM
11. Nc1cnc(-c2ccc(-c3ccccc3S(=O)(=O)NCC3(O)CCCCC3)cc2F)cn1 [Example 99, 4′-(5-Aminopyrazin-2-yl)-3′-fluoro-N-[(1-hydroxycyclohexyl)methyl]biphenyl-2-sulfonamide]  1.6 nM
12. CC(C)(O)CNS(=O)(=O)c1ccccc1-c1ccc(-c2cnc(N)cn2)c(F)c1 [Example 101, 4′-(5-Aminopyrazin-2-yl)-3′-fluoro-N-(2-hydroxy-2-methylpropyl)biphenyl-2-sulfonamide]  1.8 nM
13. Nc1cnc(-c2ccc(-c3ccccc3S(=O)(=O)N[C@@H]3CCCC[C@H]3O)cc2F)cn1 [Example 85, 4′-(5-Aminopyrazin-2-yl)-3′-fluoro-N-[(1R,2R)-2-hydroxycyclohexyl]biphenyl-2-sulfonamide]  1.9 nM
14. CC[C@H](CO)NS(=O)(=O)c1ccccc1-c1ccc(-c2cnc(N)cn2)c(F)c1 [Example 86, 4′-(5-Aminopyrazin-2-yl)-3′-fluoro-N-[(1R)-1-(hydroxymethyl)propyl]biphenyl-2-sulfonamide]  2.6 nM
15. Nc1cnc(-c2ccc(-c3ccccc3S(=O)(=O)N[C@@H]3CCCC[C@@H]3O)cc2F)cn1 [Example 87, 4′-(5-Aminopyrazin-2-yl)-3′-fluoro-N-[(1R,2S)-2-hydroxycyclohexyl]biphenyl-2-sulfonamide]  3.2 nM
16. Nc1cnc(-c2ccc(-c3ccccc3S(=O)(=O)N3CCCCCC3)cc2F)cn1 [Example 53, 5-[2′-(Azepan-1-ylsulfonyl)-3-fluorobiphenyl-4-yl]pyrazin-2-amine]  3.3 nM
17. Nc1cnc(-c2ccc(-c3ccccc3S(=O)(=O)N3CC(F)(F)C3)cc2F)cn1 [Example 52, 5-{2′-[(3,3-Difluoroazetidin-1-yl)sulfonyl]-3-fluorobiphenyl-4-yl}pyrazin-2-amine]  3.7 nM
18. Nc1cnc(-c2ccc(-c3ccccc3S(=O)(=O)N3CCC(F)(F)C3)cc2F)cn1 [Example 51, 5-{2′-[(3,3-Difluoropyrrolidin-1-yl)sulfonyl]-3-fluorobiphenyl-4-yl}pyrazin-2-amine]  3.8 nM
19. Nc1cnc(-c2ccc(-c3ccccc3S(=O)(=O)NCCCO)cc2F)cn1 [Example 80, 4′-(5-Aminopyrazin-2-yl)-3′-fluoro-N-(3-hydroxypropyl)biphenyl-2-sulfonamide]  3.9 nM
20. Nc1cnc(-c2ccc(-c3ccccc3S(=O)(=O)N3CCN(C(=O)C4CC4)CC3)cc2F)cn1 [Example 58, 5-(2′-{[4-(Cyclopropylcarbonyl)piperazin-1-yl]sulfonyl}-3-fluoroblphenyl-4-yl)pyrazin-2-amine]  4.6 nM
21. Nc1cnc(-c2ccc(-c3ccccc3S(=O)(=O)NC3CC3)cc2F)cn1 [Example 89, 4′-(5-Aminopyrazin-2-yl)-N-cyclopropyl-3′-fluoroblphenyl-2-sulfonamide]  4.9 nM
22. CC(C)C[C@@H](CO)NS(=O)(=O)c1ccccc1-c1ccc(-c2cnc(N)cn2)c(F)c1 [Example 79, 4′-(5-Aminopyrazin-2-yl)-3′-fluoro-N-[(1S)-1-(hydroxymethyl)-3-methylbutyl]biphenyl-2-sulfonamide]  5.3 nM
23. C[C@H](O)CNS(=O)(=O)c1ccccc1-c1ccc(-c2cnc(N)cn2)c(F)c1 [Example 98, (S)-4′-(5-aminopyrazin-2-yl)-3′-fluoro-N-(2-hydroxypropyl)-[1,1′-biphenyl]-2-sulfonamide]  6.1 nM
24. Nc1cnc(-c2ccc(-c3ccccc3S(=O)(=O)NCCO)cc2F)cn1 [Example 88, 4′-(5-Aminopyrazin-2-yl)-3′-fluoro-N-(2-hydroxyethyl)biphenyl-2-sulfonamide]  6.2 nM
25. Nc1cnc(-c2ccc(-c3ccccc3S(=O)(=O)N[C@H](CO)c3ccccc3)cc2F)cn1 [Example 81, 4′-(5-Aminopyrazin-2-yl)-3′-fluoro-N-[(1S)-2-hydroxy-1-phenylethyl]biphenyl-2-sulfonamide]  6.4 nM
26. Nc1cnc(-c2ccc(-c3ccccc3S(=O)(=O)N3CCOCC3)cc2F)cn1 [Example 44, 5-[3-Fluoro-2′-(morpholin-4-ylsulfonyl)biphenyl-4-yl]pyrazin-2-amine]  6.5 nM
27. C[C@@H](O)CNS(=O)(=O)c1ccccc1-c1ccc(-c2cnc(N)cn2)c(F)c1 [Example 97, (R)-4′-(5-aminopyrazin-2-yl)-3′-fluoro-N-(2-hydroxypropyl)-[1,1′-biphenyl]-2-sulfonamide]  6.6 nM
28. Nc1cnc(-c2ccc(-c3ccccc3S(=O)(=O)N3CCCC3)cc2F)cn1 [Example 48, 5-[3-Fluoro-2′-(pyrrolidin-1-ylsulfonyl)biphenyl-4-yl]pyrazin-2-amine]  7 nM
29. CS(=O)(=O)N1CCN(S(=O)(=O)c2ccccc2-c2ccc(-c3cnc(N)cn3)c(F)c2)CC1 [Example 56, 5-(3-Fluoro-2′-{[4-(methylsulfonyl)piperazin-1-yl]sulfonyl}biphenyl-4-yl)pyrazin-2-amine]  8.8 nM
30. CN(C)S(=O)(=O)c1ccccc1-c1ccc(-c2cnc(N)cn2)c(F)c1 [Example 42, 4′-(5-Aminopyrazin-2-yl)-3′-fluoro-N,N-dimethylbiphenyl-2-sulfonamide]  10.2 nM
31. Nc1cnc(-c2ccc(-c3ccccc3NS(=O)(=O)C(F)(F)F)cc2F)cn1 [Example 41, N-[4′-(5-Aminopyrazin-2-yl)-3′-fluorobiphenyl-2-yl]-1,1,1-trifluoromethanesulfonamide]  10.6 nM
32. CC(=O)NC1CCN(S(=O)(=O)c2ccccc2-c2ccc(-c3cnc(N)cn3)c(F)c2)CC1 [Example 75, N-(1-{[4′-(5-Aminopyrazin-2′yl)-3′-fluorobiphenyl-2-yl]sulfonyl}piperidin-4-yl)acetamide]  10.7 nM
33. CC(=O)N1CCN(S(=O)(=O)c2ccccc2-c2ccc(-c3cnc(N)cn3)c(F)c2)CC1 [Example 57, 5-{2′-[(4-Acetylpiperazin-1-yl)sulfonyl]-3-fluorobiphenyl-4-yl}pyrazin-2-amine]  13.4 nM
34. Nc1cnc(-c2ccc(-c3ccccc3S(=O)(=O)N3CCNC(=O)C3)cc2F)cn1 [Example 66, 4-{1,4′-(5-Aminopyrazin-2-yl)-3′-fluorobiphenyl-2-ylisulfonyl}piperazin-2-one]  26.6 nM
35. Nc1cnc(-c2ccc(-c3ccccc3NS(=O)(=O)C3CC3)cc2F)cn1 [Example 38, N-(4′-(5-aminopyrazin-2-yl)-3′-fluoro-[1,1′-biphenyl]-2-yl)cyclopropanesulfonamide]  28.8 nM
36. CN1CCCC[C@@H](NS(=O)(=O)c2ccccc2-c2ccc(-c3cnc(N)cn3)c(F)c2)C1=O [Example 29, (S)-4′-(5-Aminopyrazin-2-yl)-3′-fluoro-N-[(3S)-1-methyl-2-oxoazepan-3-yl]biphenyl-2-sulfonamide]  63.2 nM
37. Nc1cnc(-c2ccc(-c3ccccc3S(=O)(=O)N3CCC(N)CC3)cc2F)cn1 [Example 65, 5-{2′-[(4-Aminopiperidin-1-yl)sulfonyl]-3-fluorobiphenyl-4-yl}pyrazin-2-amine]  63.3 nM
38. CNC1CCN(S(=O)(=O)c2ccccc2-c2ccc(-c3cnc(N)cn3)c(F)c2)CC1 [Example 72, 5-{3-Fluoro-2′-{[4-(methylamino)piperidin-1-yl]sulfonyl}biphenyl-4-yl)pyrazin.-2-amine]  120 nM
39. CS(=O)(=O)NS(=O)(=O)c1ccccc1-c1ccc(-c2cnc(N)cn2)c(F)c1 [Example 96, 4′-(5-Aminopyrazin-2-yl)-3′-fluoro-N-(methylsulfonyl)biphenyl-2-sulfonamide]  354 nM

same assay, conditions: human FLAP wild type, a calculated value of 0.000 indicates Ki less than 1 nM

`CC(C)(CCO)NS(=O)(=O)c1ccccc1-c1ccc(-c2cnc(N)cn2)c(F)c1` [Example 102, 4′-(5-Aminopyrazin-2-yl)-3′-fluoro-N-(3-hydroxy-1,1-dimethylpropyl)biphenyl-2-sulfonamide] and `CC(C)(CO)CNS(=O)(=O)c1ccccc1-c1ccc(-c2cnc(N)cn2)c(F)c1` [Example 103, 4′-(5-Aminopyrazin-2-yl)-3′-fluoro-N-(3-hydroxy-2,2-dimethylpropyl)biphenyl-2-sulfonamide] cannot be ordered by Ki: < 1 nM for the first, < 1 nM for the second.
